Measured values as given in patent US7262170B2, “Pharmaceutical composition for reducing vaginal acidity and treatment of vaginitis, and the use thereof” (priority 1998, dated 2007).

What was measured:
Candida albicans = experiment: Growth of Candida albicans in broths with or without Fluconazole, Gram-stained smears of cultured broths; format: cell-based; conditions: 48 hours incubation, Fluconazole 0.005% in experiment tubes
Procedure: Broths: Four sterilized broths were prepared separately according to following formula: • A. Sucrose 0.25%, yeast extract powder 0.15%, glutamic acid 0.4%, aspartic acid 0.4%, isoleucine 0.4%, proline 0.4%, phenylalanine 0.4%, Fluconazole, 0.005%, distilled water, pH adjusted to 6.5 • B. Sucrose 0.25%, yeast extract powder 0.15%, glutamic acid 0.08%, aspartic acid 0.08%, isoleucine 0.08%, proline 0.08%, phenylalanine 0.08%, Fluconazole, 0.005%, distilled water, pH adjusted to 6.5 • C. Control-A broth: Sucrose 0.25%, yeast extract powder 0.15%, glutamic acid 0.4%, aspartic acid 0.4%, isoleucine 0.4%, proline 0.4%, phenylalanine 0.4%, distilled water, pH adjusted to 6.5 • D. Control-B broth: Sucrose 0.25%, yeast extract powder 0.15%, glutamic acid 0.08%, aspartic acid 0.08%, isoleucine 0.08%, proline 0.08%, phenylalanine 0.08%, distilled water, pH adjusted to 6.5 Lactobacillus suspensions: Two lactobacillus suspensions were prepared separately from each of the clinical isolated L. acidophilus and L. crispatus strains. Candida suspension: One Candida suspension was prepared from a clinically isolated Candida albicans strain. Grouping: two groups of tubes were divided and each group had four tubes, two experimental tubes and two control tubes. Group A contained 3 ml of A-broth and Group B contained 3 ml of B-broth. […]

fungal vaginitis = conditions: anti-fungal drug alone; cited from earlier work

Molecule | growth of Candida albicans / yeast-like organisms in cultured broths (Candida albicans) | curative rate (fungal vaginitis)
OC(Cn1cncn1)(Cn1cncn1)c1ccc(F)cc1F [Fluconazole] | inhibited | 
Mikostatin |  | 75-80%
